The NIST ThermoML archive (doi:10.1016/j.jct.2008.05.017)

Assay: xn = mol fraction of the nth substance listed
Conditions: Liquid; for mass density: Bellows volumetry; for Critical density: bellows voluometer

N [ammonia] + O
Conditions | mass density [kg/m3]
436.56 K, 14191 kPa, x1 = 0.9098 | 263.5
436.56 K, 14208 kPa, x1 = 0.9098 | 264.8
436.56 K, 14217 kPa, x1 = 0.9098 | 265.4
436.56 K, 14225 kPa, x1 = 0.9098 | 265.9
478.58 K, 17311 kPa, x1 = 0.7757 | 284.3
478.58 K, 17320 kPa, x1 = 0.7757 | 284.7
478.58 K, 17329 kPa, x1 = 0.7757 | 285.1
478.58 K, 17347 kPa, x1 = 0.7757 | 285.8
503.06 K, 18697 kPa, x1 = 0.6808 | 294.8
503.06 K, 18706 kPa, x1 = 0.6808 | 295.2
503.06 K, 18715 kPa, x1 = 0.6808 | 295.6
503.06 K, 18724 kPa, x1 = 0.6808 | 296
503.06 K, 18733 kPa, x1 = 0.6808 | 296.3
503.06 K, 18743 kPa, x1 = 0.6808 | 296.6
503.06 K, 18751 kPa, x1 = 0.6808 | 297

Conditions | Critical density [kg/m3]
x1 = 0.6808 | 294.6
x1 = 0.7757 | 284
x1 = 0.9098 | 262.9
